Source: patent US11331268B2, “Taste masking product” (The University of Western Australia, priority 2016, dated 2022)
Where a name gives a salt, the structure may show the parent alone. Read-outs that look alike come from different tables or passages of the source.

What was measured:
[1] = cited from earlier work
Sprague Dawley rats = assay: Rat Brief-Access Taste Aversion (BATA) model; format: in vivo
Description: The rat ‘Brief-Access Taste Aversion’ (BATA) model was used to assess the taste of the midazolam chocolate tablet formulation relative to control samples. Ten male Sprague Dawley rats (average weight […]) previously trained for the experiments were used and two independent tasting evaluations were conducted over 2 days.
Prior to the experiments, the rats were water-deprived for 22 hours but had access to food ad libitum. Each rat was placed into the Lickometer Davis Rig MS-160 (DiLog Instruments, Tallahassee, Fla., USA) for a 40-minute session where it would be presented with 16 sipper tubes mounted on a moving rack controlled by the Davis Collect Data software. The taste samples were each presented to the rat for 8 seconds, in a random order specified by the computer program. Over the 40-minute session, a sample would have been presented to the rat four times, with a 2-second water rinse given between samples. As the rats licked on the sipper, the number of licks was recorded electronically and transmitted to a database on a computer.
The 5 mg midazolam HCl chocolate tablets were assessed against control samples, which included deionized water, vehicle (water adjusted to pH 5 with HCl), 1 mg/mL solution of midazolam in the vehicle, a 2.5 mg/mL oral midazolam syrup manufactured by AUSPMAN, and chocolate placebo tablets. Simulating the advice to patients to chew the chocolate tablet and then swallow, the placebo and midazolam-loaded chocolate tablets were prepared for the taste evaluation by grinding each chocolate tablet in 2 mL of water, which mimics the volume of saliva, using a mortar and pestle. The resultant liquid preparations were then presented to the rats. […]
Aversion to the taste of a sample was indicated by a significant reduction in the number of licks when the sample was presented to the rats. […] Data was analysed using the RStudio software (https://www.rstudio.com) and applying the non-parametric Kruskal Wallis test with post-hoc Tukey's test for paired comparisons.

[2] = cited from earlier work; remark: listed apart in the source

## Cc1ncc2n1-c1ccc(Cl)cc1C(c1ccccc1F)=NC2 [Midazolam, midazolam]
[1]; low pH
  solubility in water: > 2500 µg/mL
[1]; pH>5
  solubility in water: less than 0.1 mg/ml

## Cc1ncc2n1-c1ccc(Cl)cc1C(c1ccccc1F)=NC2 [midazolam HCl, midazolam hydrochloride]
Sprague Dawley rats; Rattus norvegicus, midazolam HCl standard solutions in vehicle (water pH 5), n=2, read-out: IC50 (dose-response of number of licks)
  IC50: 300 ± 290 µg/mL
Sprague Dawley rats; rodent model
  detection threshold for the bitter taste: about 0.03 mg/ml
Sprague Dawley rats; standard solutions in vehicle
  concentration receiving comparable numbers of licks to blank vehicle: up to 0.03 mg/mL

## COc1cccc(C2(O)CCCCC2CN(C)C)c1 (stereo not drawn) [tramadol HCl, tramadol hydrochloride]
[2]
  solubility in aqueous media: ≤ 2000 µg/mL
